# Source: PMC7837508, “Interactions of the Diazabicyclooctane Serine β-Lactamase Inhibitor ETX1317 with Target Enzymes” (ACS Infectious Diseases, 2020)
# Where two headings read alike, the source gives them in different places.
# Key:
# SHV-5 [1] = target: T1, SHV-5 (Klebsiella pneumoniae, UniProt P0A3M1); assay: koff measurement by jump dilution; type: biochemical; conditions: SHV-5, jump dilution, ambient temperature
# T1 construct: made in house
# Description: (§1) Dissociation rate constants (koff) were measured by the jump-dilution method at ambient temperature as described previously.[10] Enzymes at 500 000-fold the final β-lactamase assay concentration (see above) were incubated for 15–20 min with 3-fold molar excess of freshly dissolved ETX1317 at ambient temperature in Buffer A. The mixtures were then diluted 250 000-fold with Buffer A, and 22.5 μL of the dilutions was mixed with 22.5 μL of 200 μM nitrocefin in Buffer A. The absorbance at 490 nm was monitored at 30 s intervals for 2 h at ambient temperature with a Spectramax Plus 384 plate reader. Progress curves were fit by nonlinear regression using XLfit (ID Business Solutions, Boston, MA) to the following equation: [drawing 2] where P is A490, C is the initial A490, V0 is the initial rate of absorbance increase, Vs is the final rate of absorbance increase, t is time in seconds, and k is the first order rate constant for enzyme reactivation due to inhibitor dissociation, koff.
# CTX-M-15 [2] = target: T2, CTX-M-15 (Escherichia coli, UniProt Q9EXV5); assay: koff measurement by jump dilution; type: biochemical; conditions: CTX-M-15, jump dilution, ambient temperature
# T2 construct: made in house
# Description: as §1
# P. aeruginosa AmpC [3] = target: T3, P. aeruginosa AmpC (Pseudomonas aeruginosa, UniProt P24735); assay: koff measurement by jump dilution; type: biochemical; conditions: ambient temperature
# T3 construct: made in house
# Description: as §1
# E. cloacae P99 [4] = target: T4, E. cloacae P99 (Enterobacter cloacae, UniProt P05364); assay: koff measurement by jump dilution; type: biochemical; conditions: ambient temperature
# T4 construct: made in house
# Description: as §1
# TEM-1 [5] = target: T5, TEM-1 (Escherichia coli, UniProt P62593); assay: koff measurement by jump dilution; type: biochemical; conditions: TEM-1, jump dilution, ambient temperature
# T5 construct: made in house
# Description: as §1
# KPC-2 [6] = target: T6, KPC-2 (Klebsiella pneumoniae, UniProt Q9F663); assay: koff measurement by jump dilution; type: biochemical; conditions: KPC-2, jump dilution, ambient temperature
# T6 construct: made in house
# Description: as §1
# OXA-48 [7] = target: T7, OXA-48 (Klebsiella pneumoniae, UniProt Q6XEC0); conditions: OXA-48, ambient temperature, pH 7.0, nitrocefin; ref 6 and 7; cited from earlier work
# T7 construct: made in house
# P. aeruginosa AmpC [8] = target: T3, P. aeruginosa AmpC; conditions: ambient temperature, pH 7.0, nitrocefin, ref 6 and 7; cited from earlier work
# CTX-M-15 [9] = target: T2, CTX-M-15; conditions: CTX-M-15, ambient temperature, pH 7.0, nitrocefin; ref 6 and 7; cited from earlier work
# OXA-24 = conditions: OXA-24, ambient temperature, pH 7.0, nitrocefin; ref 6 and 7; cited from earlier work
# [10] = target: T8, Pseudomonas aeruginosa AmpC (Pseudomonas aeruginosa, UniProt P24735); assay: β-lactamase acylation exchange (intact protein mass spectrometry); type: binding; conditions: acceptor OXA-48, 1, 2 and 17 h, ambient temperature
# T8 construct: made in house
# Description: (§2) β-Lactamase acylation exchange experiments and intact protein mass spectrometry were performed as described previously.[10] OXA-48 was used as the acceptor enzyme in most cases because of the stability of the ETX1317–OXA-48 complex. When OXA-48 was the donor enzyme, CTX-M-15 was used as the acceptor. Each β-lactamase (5 μM) was incubated with or without 25 μM ETX1317 in a 60 μL volume of 50 mM HEPES (pH 7.0) buffer for 1 h at ambient temperature. The samples were diluted to 400 μL with ice-cold buffer and then concentrated to ∼40 μL with Microcon YM-10 centrifugal ultrafilters (Millipore-Sigma, Burlington, MA) at 14 000g for 45 min at 4 °C. The retentates were rediluted to 400 μL with ice-cold buffer and reconcentrated as before. This was repeated a further time, leaving no significant amount of unbound ETX1317. The sample volumes were restored to 60 μL with ice-cold buffer and the samples were divided into two equal aliquots of 30 μL. Buffer (6 μL) was added to one aliquot, and 6 μL of acceptor enzyme was added to the other. The final acceptor enzyme concentrations were 5 μM. Samples were incubated at ambient temperature for the times indicated and then stored at −80 °C until analysis. LC-MS analysis was performed on a Triple TOF5600+ (AB Sciex, Redwood City, CA) equipped with a DuoSpray Ion Source and a Shimadzu LC 20-AD HPLC system (Shimadzu Scientific Instruments, Marlborough, MA). A 2 μL portion of each sample was injected onto a Poroshell 300SB-C8 75 × 2.1 mm, 5 μm column (Agilent) at 30 °C with a gradient of acetonitrile (5–95%) in 0.1% formic acid for 3 min followed by a 1 min hold at 95% before returning to 5% acetonitrile at a flow rate of 0.4 mL/min. The mass spectrometer was operated in positive ion and intact protein mode with source temperature of 450 °C. LC-MS data were acquired in the TOF MS mode for m/z+ from 600 to 2000. Nebulizer gas (GS1), heater gas (GS2), and curtain gas were set at 60, 70, and 30 psi, respectively. Ion spray voltage was 5500 V. Declustering voltage was 100 V, and collision energy was 10 V. Peak masses for protein species were determined following spectrum deconvolution using PeakView version 2.2 software. Mass accuracy of intact proteins is ±1 Da.
# SHV-5 [11] = target: T1, SHV-5; assay: as above; type: binding; conditions: donor SHV-5, acceptor OXA-48, ambient temperature
# Description: as §2
# CTX-M-15 [12] = target: T2, CTX-M-15; assay: as above; type: binding; conditions: donor CTX-M-15, acceptor OXA-48, ambient temperature
# Description: as §2
# OXA-48 [13] = target: T7, OXA-48; assay: as above; type: binding; conditions: donor OXA-48, acceptor CTX-M-15, 19 h, ambient temperature, no added bicarbonate
# Description: as §2
# TEM-1 [14] = target: T5, TEM-1; assay: as above; type: binding; conditions: donor TEM-1, acceptor OXA-48, ambient temperature
# Description: as §2
# KPC-2 [15] = target: T6, KPC-2; assay: as above; type: binding; conditions: donor KPC-2, acceptor OXA-48, 19 h, ambient temperature
# Description: as §2
# Enterobacter cloacae P99 = target: T9, Enterobacter cloacae P99 (Enterobacter cloacae, UniProt P05364); assay: as above; type: binding; conditions: donor P99, acceptor OXA-48, ambient temperature
# T9 construct: made in house
# Description: as §2
# CTX-M-14 = tested on: CTX-M-14; design: method as in PMID 32658473; conditions: higher than that of avibactam; cited from earlier work
# E. cloacae P99 [16] = target: T4, E. cloacae P99; conditions: cited from earlier work
# TEM-1 [17] = target: T5, TEM-1; design: method as in PMID 28665414, PMID 32658473; conditions: ref 6 and 7, cited from earlier work; for kinact/Ki: TEM-1, ambient temperature, pH 7.0, nitrocefin
# AmpC = target: T10, AmpC (Pseudomonas aeruginosa, UniProt P24735); assay: Partition ratio measurement; type: biochemical; conditions: incubation 1 h, ambient temperature
# T10 construct: made in house
# Description: (§3) Partition ratios were measured as described previously[10] at ambient temperature in Buffer A. ETX1317 was freshly dissolved in assay buffer and an arithmetic dilution series was prepared from 0 to 12 μM in 1.2 μM steps. Each of these was mixed with an equal volume of 6 μM β-lactamase. At each time point, the mixtures were diluted in buffer to 2-fold the final reaction concentration of enzyme. Then, 22.5 μL of enzyme + inhibitor solutions were mixed with 22.5 μL of 200 μM nitrocefin substrate in a clear polystyrene 384-well assay plate. The absorbance at 490 nm was monitored at 10-s intervals for 10 min with a Spectramax Plus 384 plate reader. The slopes of the progress curves (ΔA490/s) were calculated. The percent of the control value for each inhibitor concentration was plotted versus the inhibitor:enzyme molar ratio. A best-fit line was calculated with a fixed point at 100% on the y-axis.
# SHV-5 [18] = target: T1, SHV-5; assay: Partition ratio measurement; type: biochemical; conditions: SHV-5, incubation 1 h, ambient temperature
# Description: as §3
# CTX-M-15 [19] = target: T2, CTX-M-15; assay: Partition ratio measurement; type: biochemical; conditions: CTX-M-15, incubation 1 h, ambient temperature
# Description: as §3
# OXA-48 [20] = target: T7, OXA-48; assay: Partition ratio measurement; type: biochemical; conditions: OXA-48, incubation 1 h, ambient temperature
# Description: as §3
# KPC-2 [21] = target: T6, KPC-2; assay: Partition ratio measurement; type: biochemical
# Description: as §3
# KPC-2 [22] = target: T6, KPC-2; conditions: KPC-2, ambient temperature, pH 7.0, nitrocefin; ref 6 and 7; cited from earlier work
# SHV-5 [23] = target: T1, SHV-5; conditions: SHV-5, ambient temperature, pH 7.0, nitrocefin; ref 6 and 7; cited from earlier work
# OXA-10 = conditions: OXA-10, ambient temperature, pH 7.0, nitrocefin; ref 6 and 7; cited from earlier work
# SHV-5 [24] = target: T1, SHV-5; design: method as in PMID 28835096; conditions: cited from earlier work
# E. cloacae P99 [25] = target: T4, E. cloacae P99; conditions: cited from earlier work; remark: listed apart in the source
# CTX-M-15 [26] = target: T2, CTX-M-15; conditions: cited from earlier work
# OXA-48 [27] = target: T7, OXA-48; conditions: OXA-48, 37 °C, discontinuous jump dilution method covering 6 h; cited from earlier work
# KPC-2 [28] = target: T6, KPC-2; conditions: cited from earlier work
# OXA-23 = conditions: OXA-23, ambient temperature, pH 7.0, nitrocefin; ref 6 and 7; cited from earlier work
# P. aeruginosa AmpC [29] = target: T3, P. aeruginosa AmpC; conditions: cited from earlier work
# TEM-1 [30] = target: T5, TEM-1; conditions: cited from earlier work
# [31] = E. cloacae P99, ambient temperature, pH 7.0, nitrocefin, ref 6 and 7
# T2 sequence (Q9EXV5 29-291, species assumed): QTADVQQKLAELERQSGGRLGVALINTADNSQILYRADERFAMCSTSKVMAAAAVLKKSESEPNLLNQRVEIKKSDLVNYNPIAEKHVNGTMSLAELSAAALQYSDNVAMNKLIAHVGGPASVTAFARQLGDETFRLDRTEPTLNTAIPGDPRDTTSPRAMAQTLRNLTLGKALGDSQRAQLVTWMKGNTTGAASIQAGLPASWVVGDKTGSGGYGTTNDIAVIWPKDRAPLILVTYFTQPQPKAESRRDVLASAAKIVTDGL
# T4 sequence (P05364 21-381): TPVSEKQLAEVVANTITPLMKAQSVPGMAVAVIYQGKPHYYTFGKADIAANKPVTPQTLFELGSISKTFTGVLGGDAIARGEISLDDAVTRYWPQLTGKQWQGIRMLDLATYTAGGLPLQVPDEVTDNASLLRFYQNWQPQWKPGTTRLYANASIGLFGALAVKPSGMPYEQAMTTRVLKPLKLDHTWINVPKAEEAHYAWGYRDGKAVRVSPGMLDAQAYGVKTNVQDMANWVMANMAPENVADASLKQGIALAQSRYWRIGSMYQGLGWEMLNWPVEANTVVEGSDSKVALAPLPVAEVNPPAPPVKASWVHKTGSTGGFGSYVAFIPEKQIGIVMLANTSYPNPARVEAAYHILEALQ
# T3 sequence (P24735 27-397): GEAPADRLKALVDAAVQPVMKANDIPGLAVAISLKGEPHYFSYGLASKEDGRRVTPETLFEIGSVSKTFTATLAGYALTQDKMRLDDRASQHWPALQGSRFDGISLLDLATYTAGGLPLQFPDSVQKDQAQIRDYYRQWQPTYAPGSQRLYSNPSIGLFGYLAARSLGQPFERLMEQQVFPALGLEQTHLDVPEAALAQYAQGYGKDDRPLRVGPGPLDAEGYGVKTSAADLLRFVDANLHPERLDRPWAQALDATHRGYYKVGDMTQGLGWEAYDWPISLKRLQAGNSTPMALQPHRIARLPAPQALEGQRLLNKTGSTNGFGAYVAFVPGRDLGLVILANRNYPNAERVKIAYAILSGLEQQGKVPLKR
# T1 sequence (P0A3M1 22-286, species assumed): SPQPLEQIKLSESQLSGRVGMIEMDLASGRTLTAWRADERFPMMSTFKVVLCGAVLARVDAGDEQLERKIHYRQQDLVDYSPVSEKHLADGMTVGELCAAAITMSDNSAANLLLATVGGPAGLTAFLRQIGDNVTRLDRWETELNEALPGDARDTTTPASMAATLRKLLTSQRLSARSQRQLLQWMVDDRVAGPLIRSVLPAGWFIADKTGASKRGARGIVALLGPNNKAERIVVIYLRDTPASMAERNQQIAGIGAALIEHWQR
# T5 sequence (P62593 24-286 limits assumed): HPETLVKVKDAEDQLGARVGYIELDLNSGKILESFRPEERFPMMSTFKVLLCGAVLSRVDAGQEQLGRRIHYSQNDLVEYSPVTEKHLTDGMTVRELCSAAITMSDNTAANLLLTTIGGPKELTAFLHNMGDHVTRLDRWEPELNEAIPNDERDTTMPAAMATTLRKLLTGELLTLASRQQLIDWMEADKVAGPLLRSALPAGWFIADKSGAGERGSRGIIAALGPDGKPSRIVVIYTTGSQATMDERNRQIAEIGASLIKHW
# T6 sequence (Q9F663 25-293, looked up, species assumed): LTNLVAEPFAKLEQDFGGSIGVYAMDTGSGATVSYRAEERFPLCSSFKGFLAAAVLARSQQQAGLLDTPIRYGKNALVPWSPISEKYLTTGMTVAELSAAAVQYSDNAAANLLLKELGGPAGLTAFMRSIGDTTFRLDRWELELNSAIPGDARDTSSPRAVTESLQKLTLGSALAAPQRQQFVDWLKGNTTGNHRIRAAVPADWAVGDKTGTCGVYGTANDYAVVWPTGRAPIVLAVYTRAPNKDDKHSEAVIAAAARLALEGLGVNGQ
# T7 sequence (Q6XEC0 23-265, looked up, species assumed): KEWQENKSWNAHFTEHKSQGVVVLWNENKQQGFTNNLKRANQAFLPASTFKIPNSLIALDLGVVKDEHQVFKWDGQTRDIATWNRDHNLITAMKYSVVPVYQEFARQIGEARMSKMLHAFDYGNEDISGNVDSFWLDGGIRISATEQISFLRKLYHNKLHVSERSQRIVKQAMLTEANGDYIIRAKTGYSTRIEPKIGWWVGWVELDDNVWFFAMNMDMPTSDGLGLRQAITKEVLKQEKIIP
# T9 sequence (P05364 21-381): as the sequence (P05364 21-381) above
# T8 sequence (P24735 27-397): as the sequence (P24735 27-397) above
# T10 sequence (P24735 27-397): as above
smiles,measurement,setting,value
CC1=C[C@@H](C(N)=O)N2C[C@@H]1N(O[C@H](F)C(=O)O)C2=O [ETX1317],koff,SHV-5 [1],0.002 s⁻¹
same,koff,CTX-M-15 [2],0.00013 s⁻¹
same,koff,P. aeruginosa AmpC [3],0.0006 s⁻¹
same,koff,E. cloacae P99 [4],9.2e-05 s⁻¹
same,koff,TEM-1 [5],0.008 s⁻¹
same,koff,KPC-2 [6],0.00052 s⁻¹
same,kinact/Ki,OXA-48 [7],5.3 (±0.2) × 10^4 M^–1 s^–1
same,kinact/Ki,P. aeruginosa AmpC [8],1.20 (±0.04) × 10^4 M^–1 s^–1
same,kinact/Ki,CTX-M-15 [9],4.8 (±0.4) × 10^6 M^–1 s^–1
same,kinact/Ki,OXA-24,4.6 (±0.2) × 10^3 M^–1 s^–1
same,acylation exchange (recyclization and dissociation of intact inhibitor) from donor to acceptor enzyme,[10],observed
same,acylation exchange (recyclization and dissociation of intact inhibitor) from donor to acceptor enzyme,SHV-5 [11],observed
same,acylation exchange (recyclization and dissociation of intact inhibitor) from donor to acceptor enzyme,CTX-M-15 [12],observed
same,acylation exchange (recyclization and dissociation of intact inhibitor) from donor to acceptor enzyme,OXA-48 [13],lack of acylation exchange
same,acylation exchange (recyclization and dissociation of intact inhibitor) from donor to acceptor enzyme,TEM-1 [14],observed
same,acylation exchange (recyclization and dissociation of intact inhibitor) from donor to acceptor enzyme,KPC-2 [15],observed
same,acylation exchange (recyclization and dissociation of intact inhibitor) from donor to acceptor enzyme,Enterobacter cloacae P99,observed
same,potency of CTX-M-14 inhibition relative to avibactam,CTX-M-14,about 10 fold
same,kinact/Ki,E. cloacae P99 [16]; [31],3.9 (±0.2) × 10^4 M^–1 s^–1
same,Ki,"TEM-1 [17]; TEM-1, equilibrium dissociation constant, inhibition not time-dependent on 30 s time scale",0.34 nM
same,partition ratio,AmpC,1.0
same,partition ratio,SHV-5 [18],0.9
same,partition ratio,CTX-M-15 [19],0.7
same,partition ratio,OXA-48 [20],1.1
same,partition ratio,"KPC-2 [21]; KPC-2, 15 min incubation (not shown)",1.1
same,partition ratio,"KPC-2 [21]; KPC-2, incubation of enzyme and inhibitor 3 h, ambient temperature",1.1
same,kinact/Ki,KPC-2 [22],4.9 (±0.2) × 10^4 M^–1 s^–1
NC(=O)[C@@H]1CC[C@@H]2CN1C(=O)N2OS(=O)(=O)O [avibactam],kinact/Ki,OXA-48 [7],5 × 10^3 M^–1 s^–1
same,kinact/Ki,P. aeruginosa AmpC [8],3 × 10^3 M^–1 s^–1
same,kinact/Ki,CTX-M-15 [9],8 × 10^5 M^–1 s^–1
same,kinact/Ki,OXA-24,80 M^–1 s^–1
same,kinact/Ki,E. cloacae P99 [16]; pH 7,8 × 10^3 M^–1 s^–1
same,kinact/Ki,TEM-1 [17],4 × 10^5 M^–1 s^–1
same,kinact/Ki,SHV-5 [23],1 × 10^5 M^–1 s^–1
same,kinact/Ki,OXA-10,70 M^–1 s^–1
same,kinact/Ki,KPC-2 [22],6 × 10^3 M^–1 s^–1
CC1=C[C@@H]2CN(C(=O)N2OS(=O)(=O)O)[C@@H]1C(N)=O [durlobactam],koff,SHV-5 [24],5.5 (±0.3) × 10^–4 s^–1
same,kinact/Ki,OXA-48 [7],8 (±2) × 10^5 M^–1 s^–1
same,koff,E. cloacae P99 [25],3.4 (±0.5) × 10^–4 s^–1
same,koff,CTX-M-15 [26],2.2 (±0.5) × 10^–4 s^–1
same,koff,OXA-48 [27],2.5 (±0.3) × 10^–5 s^–1
same,kinact/Ki,P. aeruginosa AmpC [8],9 (±5) × 10^5 M^–1 s^–1
same,kinact/Ki,CTX-M-15 [9],7 (±2) × 10^6 M^–1 s^–1
same,koff,KPC-2 [28],1.0 (±0.1) × 10^–3 s^–1
same,kinact/Ki,OXA-24,9 (±2) × 10^3 M^–1 s^–1
same,kinact/Ki,OXA-23,5.1 (±0.2) × 10^3 M^–1 s^–1
same,koff,P. aeruginosa AmpC [29],4 (±1) × 10^–3 s^–1
same,kinact/Ki,E. cloacae P99 [16]; [31],2.3 (±0.4) × 10^6 M^–1 s^–1
same,kinact/Ki,TEM-1 [17],1.4 (±0.6) × 10^7 M^–1 s^–1
same,kinact/Ki,SHV-5 [23],6.4 (±0.5) × 10^6 M^–1 s^–1
same,kinact/Ki,OXA-10,9 (±2) × 10^3 M^–1 s^–1
same,kinact/Ki,KPC-2 [22],9.3 (±0.6) × 10^5 M^–1 s^–1
same,koff,TEM-1 [30],1.4 (±0.2) × 10^–3 s^–1
